In patent US6548307B2, “Determination of logP coefficients via a RP-HPLC column” (Pfizer Inc., priority 2000, dated 2003):
Where two headings read alike, the source gives them in different places.

Experiments:
[1] = Shake-flask data from literature references; cited from earlier work
physchem = conditions: for log k′2 (capacity factor extrapolated to 0% methanol): Average of at least three determinations on different LC-ABZ columns, 20 mM MOPS pH 7.4/methanol with octanol; for Residual: logPoct minus ElogPoct
Protocol: The mobile phase consisted, in all cases, of 20 mM MOPS buffer at pH 7.4, and methanol in varying proportions from 70 to 15% v/v. […] The capacity factors data (k′=(tR−t0)/t0) obtained at various amounts of methanol were then extrapolated to 0% methanol and reported as log k′w, using a linear procedure. […] Injections of pure methanol were used to determine t0, i.e. the dead time, while tR has the usual meaning of the retention time for the analyte.
All the chromatographic runs were performed on a HP-1100 HPLC ChemStation at the ambient temperature. The columns used were Supelcosil LC-ABZ, 5μm, 4.6×50 mm. […] Columns having different silica bond lots were tested to ensure reproducibility. Samples were dissolved in 1:1 methanol/water at a concentration of 10-30 μg/mL. The flow rate was 0.5, 1 or 2 mL/min, depending on the lipophilicity range. Three lipophilicity ranges were established using, in all cases, three points for the extrapolation to k′w, as described in the table below.
The samples were placed in the appropriate range by estimating their lipophilicity via computed values, or by prior experience with a given class. In each case the entire group of samples was run before the column is equilibrated to the next condition, in an automated fashion, and the initial estimation need not be very accurate. The data analysis was automated via in-house software yielding the ElogPoct values, directly from the chromatographic data files.

[2] = Shake-flask octanol/buffer partition coefficient (logPoct); type: physicochemical; conditions: Shake-flask data, this work (in-house, octanol/MOPS buffer, overnight shaking)
Excerpt: The shake-flask logPoct data were taken from the literature or determined in-house, except when data were not available or could not be determined experimentally due to the high lipophilicity of the compound. In such cases a computed value was used. The shake-vial experimental measurements performed in-house were all conducted at least in duplicate, in amber glass vials and, in some cases, with varying ratios of octanol and MOPS buffer, mutually pre-saturated prior to the experiment. Overnight shaking was used. HPLC analysis at different wavelengths, after centrifugation and separation of the phases, was used for the quantitative analysis, using both phases.

[3] = Data from Equation 3 (from log k′w)

SMILES	logPoct [1]	chromatographic logP (physchem)	log k′2 (capacity factor extrapolated to 0% methanol) (physchem)	Residual (physchem)	ElogPoct (physchem; pH 7.4)	logPoct [2]	ElogPoct (physchem; [3])
O=C1CN=C(c2ccccn2)c2cc(Br)ccc2N1 [Bromazepam]	1.65	1.39	1.13	0.26	–	–	–
Cc1ncc([N+](=O)[O-])n1CCO [Metronidazole]	−0.02	–	−0.32	0.20	−0.22	–	–
CSc1ncnc2c1ncn2[C@@H]1O[C@H](CO)[C@@H](O)[C@H]1O [Methylthiolnosine]	–	–	0.19	−0.25	–	0.09	0.34
c1ccc2ncccc2c1 [Quinoline]	–	1.86	1.56	0.17	–	–	–
c1ccc(-c2ccc(C(c3ccccc3)n3ccnc3)cc2)cc1 (centres unmarked) [Bifonazole]	4.77	4.98	4.37	−0.21	–	–	–
NC(=O)N/N=C/c1ccc([N+](=O)[O-])o1 [Nitrofurazone]	0.23	0.24	0.10	−0.01	–	–	–
C[C@]12CC[C@H]3[C@@H](CCC4=CC(=O)CC[C@@]43C)[C@@H]1CC[C@@H]2O [Testosterone]	3.29	–	2.74	0.12	–	–	3.17
CC/C(=C(/CC)c1ccc(O)cc1)c1ccc(O)cc1 [Diethylstilbestrol]	5.07	4.75	4.16	0.32	–	–	–
c1ccc2ccccc2c1 [Naphthalene]	–	3.53	3.06	−0.16	–	–	–
C[C@@H]1C[C@H]2[C@@H]3CCC4=CC(=O)C=C[C@]4(C)[C@@]3(F)[C@@H](O)C[C@]2(C)[C@@]1(O)C(=O)CO [Dexamethasone]	1.83	2.39	–	–	–	–	–
CC(=O)Nc1ccc(O)cc1 [Acetaminophen]	–	0.11	−0.02	0.40	–	–	–
Oc1cccc(Cl)c1 [3-Clorophenol]	–	–	2.49	−0.40	–	–	–
O=[N+]([O-])c1ccc(/C=N/O)o1 [Nifuroxime]	–	1.36	1.11	−0.08	–	1.28	–
CC(=O)OCC(=O)[C@@]1(O)CC[C@H]2[C@@H]3CCC4=CC(=O)CC[C@]4(C)[C@H]3[C@@H](O)C[C@@]21C [Hydrocortisone-21-acetate]	–	–	1.93	−0.08	–	–	2.27
Oc1ncnc2[nH]ncc12 [Allopurinol]	−0.55	–	−0.89	0.30	−0.85	–	–
Oc1cc(Cl)cc(Cl)c1 [3,5-Dichlorophenol]	3.68	3.91	3.40	−0.23	–	–	–
O=C1Nc2ccc(Cl)cc2C(c2ccccc2Cl)=NC1O (centres unmarked) [Lorazepam]	–	2.75	2.36	−0.24	–	–	–
CS(=O)(=O)c1ccc([C@@H](O)[C@@H](CO)NC(=O)C(Cl)Cl)cc1 [Thiamphenicol]	−0.27	–	−0.24	−0.14	−0.13	–	–
C[C@]12C=CC(=O)C=C1CC[C@@H]1[C@@H]2C(=O)C[C@@]2(C)[C@H]1CC[C@]2(O)C(=O)CO [Prednisone]	–	–	1.21	−0.02	–	–	–
CC(=O)CCCCn1c(=O)c2c(ncn2C)n(C)c1=O [Pentoxifylline]	0.29	0.31	0.16	−0.02	–	–	–
COC1=CC(=O)C[C@@H](C)[C@]12Oc1c(Cl)c(OC)cc(OC)c1C2=O [Griseofulvin]	2.18	2.59	2.21	−0.41	–	–	–
NC(=O)N1c2ccccc2C=Cc2ccccc21 [Carbamazepine]	2.19	2.02	1.70	0.17	–	–	–
Cc1cccc(N(C)C(=S)Oc2ccc3ccccc3c2)c1 [Tolnaftate]	–	5.18	4.55	0.22	–	–	–
C[C@]12CC[C@@H]3c4ccc(O)cc4CC[C@H]3[C@@H]1CC[C@@H]2O [Estradiol]	–	3.84	–	–	–	–	–
Brc1cnc2ccccc2c1 [3-Bromoquinoline]	3.03	2.95	2.54	0.08	–	–	–
CN1C(=O)C(O)N=C(c2ccccc2Cl)c2cc(Cl)ccc21 (centres unmarked) [Lormetazepam]	2.72	2.8	2.40	−0.08	–	–	–
C[C@]12C=CC(=O)C=C1CC[C@@H]1[C@@H]2[C@@H](O)C[C@@]2(C)[C@H]1CC[C@]2(O)C(=O)CO [Prednisolone]	–	1.84	1.54	−0.24	–	–	–
CC(=O)c1ccccc1 [Acetophenone]	–	1.59	1.31	−0.01	–	–	–
